{"source": "patent US20260272896A1", "about": "“ORAL D[…] OF MITRAGYNINE” (LUCKY 4U EXIMS, priority 2023, published 2026)", "experiment": "Long term storage stability of purified Mitragynine", "type": "physicochemical", "settings": "stored at 2° C.-8° C.", "data": [{"smiles": "CC[C@@H]1CN2CCc3c([nH]c4cccc(OC)c34)[C@@H]2C[C@@H]1/C(=C\\OC)C(=O)OC", "note": "[Mitragynine]", "values": [{"measurement": "Storage stability", "value": "stable for long term storage"}]}]}
